Data published in patent US20090137553A1, “Thiazepine Oxazolidinones as Antibacterial Agents” (Pharmacia and Upjohn Company LLC, priority 2004, published 2009).
≈ marks a conversion by molar mass, not a printed value.

What was measured:
Format in all cases: cell-based
S. pyogenes (C203) = assay: In vitro antibacterial activity (MIC), S. pyogenes; conditions: Streptococcus pyogenes; strain C203; lowest concentration preventing macroscopically visible growth; read-out: Minimum Inhibitory concentrations S. pyogenes (C203)
Text: (§1) The in vitro antibacterial activity of the compounds of the present invention may be assessed by following procedures recommended in (1) National Committee for Clinical Laboratory Standards (January 2003), Methods for dilution antimicrobial tests for bacteria that grow aerobically, Approved Standard (6th ed), M7-A6, NCCLS, Wayne, Pa.; (2) National Committee for Clinical Laboratory Standards (March 2001), Methods for antimicrobial susceptibility testing of anaerobic bacteria, Approved Standard (5th ed), M11-A4, NCCLS, Wayne, Pa.; (3) National Committee for Clinical Laboratory Standards (January 2003), MIC testing supplemental tables, M100-S13 (for use with M7-A6), NCCLS, Wayne, Pa.; and (4) Murray P R, Baron E J, Jorgensen J H, et al. Manual of Clinical Microbiology (8th ed) Washington, D.C.: American Society for Microbiology Press, 2003. The antibacterial activity can be presented in the form of MIC value. The MIC value is the lowest concentration of drug which prevented macroscopically visible growth under the conditions of the test.

S. aureus (UC-76) = assay: In vitro antibacterial activity (MIC), S. aureus; conditions: Staphylococcus aureus, UC76; strain UC-76; lowest concentration preventing macroscopically visible growth; read-out: Minimum Inhibitory concentrations S. aureus (UC-76)
Text: as §1

S. pneumoniae (SV-1) = assay: In vitro antibacterial activity (MIC), S. pneumoniae; conditions: Streptococcus pneumoniae; strain SV-1; lowest concentration preventing macroscopically visible growth; read-out: Minimum Inhibitory concentrations S. pneumoniae (SV-1)
Text: as §1

## CNC(=O)[C@H]1CN(c2ccc(N3CCCS(=O)(=O)CC3)c(F)c2)C(=O)O1 [Example 13, 5(R)-3-[4-(1,1-dioxo-1λ^6-[1,4]thiazepan-4-yl)-3-fluoro-phenyl]-2-oxo-oxazolidine-5-carboxylic acid methyl amide]
S. pyogenes (C203)
  MIC: 1 µg/mL (≈ 2.59 µM)
S. aureus (UC-76)
  MIC: 12 µg/mL (≈ 31.1 µM)
S. pneumoniae (SV-1)
  MIC: 2 µg/mL (≈ 5.19 µM)

## NC(=O)[C@H]1CN(c2cc(F)c(N3CCCSCC3)c(F)c2)C(=O)O1 [Example 1, 3-[3,5-difluoro-4-(1,4-thiazepan-4-yl)-phenyl]-2-oxo-oxazolidine-5-carboxylic acid amide]
S. pyogenes (C203)
  MIC: 2 µg/mL (≈ 5.6 µM)
S. aureus (UC-76)
  MIC: 2 µg/mL (≈ 5.6 µM)
S. pneumoniae (SV-1)
  MIC: 4 µg/mL (≈ 11.2 µM)

## CONC(=O)[C@H]1CN(c2cc(F)c(N3CCCS(=O)(=O)CC3)c(F)c2)C(=O)O1 [Example 5, 3-[4-(1,1-dioxo-1λ^6-[1,4]thiazepan-4-yl)-3,5-difluoro-phenyl]-2-oxo-oxazolidine-5-carboxylic acid methoxy-amide]
S. pyogenes (C203)
  MIC: 4 µg/mL (≈ 9.54 µM)
S. aureus (UC-76)
  MIC: 4 µg/mL (≈ 9.54 µM)
S. pneumoniae (SV-1)
  MIC: 8 µg/mL (≈ 19.1 µM)

## NC(=O)[C@H]1CN(c2cc(F)c(N3CCC/S(=N\C(=O)C(F)(F)F)CC3)c(F)c2)C(=O)O1 (stereo partly drawn) [Example 6, 3-{3,5-difluoro-4-[1-(2,2,2-trifluoro-acetylimino)-114-[1,4]thiazepan-4-yl]-phenyl}-2-oxo-oxazolidine-5-carboxylic acid amide]
S. pyogenes (C203)
  MIC: 8 µg/mL (≈ 17.1 µM)
S. aureus (UC-76)
  MIC: 8 µg/mL (≈ 17.1 µM)
S. pneumoniae (SV-1)
  MIC: 8 µg/mL (≈ 17.1 µM)

## CNC(=O)[C@H]1CN(c2cc(F)c(N3CCCSCC3)c(F)c2)C(=O)O1 [Example 2, 3-[3,5-difluoro-4-(1,4-thiazepan-4-yl)-phenyl]-2-oxo-oxazolidine-5-carboxylic acid methylamide]
S. pyogenes (C203)
  MIC: 2 µg/mL (≈ 5.38 µM)
S. aureus (UC-76)
  MIC: 2 µg/mL (≈ 5.38 µM)
S. pneumoniae (SV-1)
  MIC: 4 µg/mL (≈ 10.8 µM)

## CNC(=O)[C@H]1CN(c2cc(F)c(N3CCC/S(=N\C(=O)C(F)(F)F)CC3)c(F)c2)C(=O)O1 (stereo in doubt) [Example 7, 3-{3,5-difluoro-4-[1-(2,2,2-trifluoro-acetylimino)-1λ^4-[1,4]thiazepan-4-yl]-phenyl}-2-oxo-oxazolidine-5-carboxylic acid methylamide]
S. pyogenes (C203)
  MIC: 8 µg/mL (≈ 16.6 µM)
S. aureus (UC-76)
  MIC: 8 µg/mL (≈ 16.6 µM)
S. pneumoniae (SV-1)
  MIC: 8 µg/mL (≈ 16.6 µM)

## NC(=O)[C@H]1CN(c2ccc(N3CCC[S+]([O-])CC3)c(F)c2)C(=O)O1 (stereo partly drawn) [Example 12, 5(R)-3-[3-fluoro4-(1-oxo-1-[1,4]thiazepan-4-yl)-phenyl]-2-oxo-oxazolidine-5-carboxylic acid amide]
S. pyogenes (C203)
  MIC: 1 µg/mL (≈ 2.81 µM)
S. aureus (UC-76)
  MIC: 2 µg/mL (≈ 5.63 µM)
S. pneumoniae (SV-1)
  MIC: 4 µg/mL (≈ 11.3 µM)

## NC(=O)[C@H]1CN(c2cc(F)c(N3CCCS(=O)(=O)CC3)c(F)c2)C(=O)O1 [Example 3, 3-[4-(1,1-dioxo-1λ^6-[1,4]thiazepan-4-yl)-3,5-difluoro-phenyl]-2-oxo-oxazolidine-5-carboxylic acid amide]
S. pyogenes (C203)
  MIC: 2 µg/mL (≈ 5.14 µM)
S. aureus (UC-76)
  MIC: 2 µg/mL (≈ 5.14 µM)
S. pneumoniae (SV-1)
  MIC: 4 µg/mL (≈ 10.3 µM)

## CNC(=O)[C@H]1CN(c2ccc(N3CCCSCC3)c(F)c2)C(=O)O1 [Example 9, 5(R)-3-[3-Fluoro-4-(1,4-thiazepan-4-yl)-phenyl]-2-oxo-oxazolidine-5-carboxylic acid methylamide]
S. pyogenes (C203)
  MIC: 4 µg/mL (≈ 11.3 µM)
S. aureus (UC-76)
  MIC: 8 µg/mL (≈ 22.6 µM)
S. pneumoniae (SV-1)
  MIC: 8 µg/mL (≈ 22.6 µM)

## CNC(=O)[C@H]1CN(c2cc(F)c(N3CCCS(=O)(=O)CC3)c(F)c2)C(=O)O1 [Example 4, 3-[4-(1,1-dioxo-1λ^6-[1,4]thiazepan-4-yl)-3,5-difluoro-phenyl]-2-oxo-oxazolidine-5-carboxylic acid methylamide]
S. pyogenes (C203)
  MIC: 2 µg/mL (≈ 4.96 µM)
S. aureus (UC-76)
  MIC: 2 µg/mL (≈ 4.96 µM)
S. pneumoniae (SV-1)
  MIC: 4 µg/mL (≈ 9.92 µM)

## CNC(=O)[C@H]1CN(c2ccc(N3CCC[S+]([O-])CC3)c(F)c2)C(=O)O1 (stereo partly drawn) [Example 11, 5(R)-3-[-fluoro-4-(1-oxo-1λ^4-[1,4]thiazepan-4yl)-phenyl]-2-oxo-oxazolidine-5-carboxylic acid methyl amide]
S. pyogenes (C203)
  MIC: 1 µg/mL (≈ 2.71 µM)
S. aureus (UC-76)
  MIC: 2 µg/mL (≈ 5.41 µM)
S. pneumoniae (SV-1)
  MIC: 4 µg/mL (≈ 10.8 µM)
